Entries after “also recorded” stand apart in the source; their conditions may differ.
Experiments:
[1] = system: influenza virus strain PR8; assay type: cell-based
[2] = system: H7N7 A/Equine/London/1416/73 influenza virus strain; design: species or system mice; conditions: mouse, in vivo

## Cc1ccccc1-n1c(Cn2cnc3c(N)ncnc32)nc2cccc(C)c2c1=O [IC87114]
[1]
  reduction of viral mRNA production compared to untreated cells: ~25 fold
[1]; 100 μM
  influenza virus replication (specific RT-PCR): inhibits influenza virus replication
[2]
  survival after lethal challenge: increased survival; also recorded: protects mice lethally challenged
